Assay [1] has as its target Eukaryotic translation initiation factor 4H (Homo sapiens, UniProt Q15056). Kind of assay: eIF4H binding inhibition – biochemical, uHTS, fluorescence polarization, translation initiation inhibitor project, primary screen (AID 2012). For orientation: Fluorescence polarisation rises when a labelled molecule tumbles more slowly, as on binding a larger partner.
The target in assay [2] is Polyadenylate-binding protein 1 (Homo sapiens, UniProt P11940). In words: blockers of PABP interaction with poly(A) – biochemical, fluorescence polarization, […] (AID 2014).
Assay [3] can be described thus: A cytotoxicity screen of small molecule inhibitors of the PhoP region in Salmonella typhi identified in the primary screen. [Related pubchem assays: 1850, 1864, 1985 ]. The format is functional.
Assay [4] has as its target T1, Leucine aminopeptidase (Plasmodium falciparum 3D7, UniProt Q8IL11).
T1 sequence (Q8IL11 whole entry): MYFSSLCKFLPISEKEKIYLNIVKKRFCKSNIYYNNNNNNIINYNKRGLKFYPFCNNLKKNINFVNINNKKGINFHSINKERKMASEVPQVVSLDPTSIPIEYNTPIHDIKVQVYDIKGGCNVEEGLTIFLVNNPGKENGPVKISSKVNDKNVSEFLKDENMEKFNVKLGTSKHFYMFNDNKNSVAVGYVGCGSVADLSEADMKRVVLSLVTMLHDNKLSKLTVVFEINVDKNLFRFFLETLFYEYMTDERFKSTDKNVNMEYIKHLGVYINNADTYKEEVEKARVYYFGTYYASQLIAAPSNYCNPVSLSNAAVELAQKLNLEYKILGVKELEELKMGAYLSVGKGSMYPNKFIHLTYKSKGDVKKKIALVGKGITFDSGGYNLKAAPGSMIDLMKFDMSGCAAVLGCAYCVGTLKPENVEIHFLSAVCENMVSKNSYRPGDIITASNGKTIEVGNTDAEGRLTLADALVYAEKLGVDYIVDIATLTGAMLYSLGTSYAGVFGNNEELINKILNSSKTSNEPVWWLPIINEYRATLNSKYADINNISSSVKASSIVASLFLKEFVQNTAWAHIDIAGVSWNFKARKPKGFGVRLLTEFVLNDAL
In words: P. falciparum M17LAP inhibitors, primary screen, biochemical, fluorogenic H-Leu-NHMec substrate, 1536-well (AID 1619). The format is functional.

Assay [5] deals with T2, Aspartyl aminopeptidase (Plasmodium falciparum 3D7, UniProt Q8I2J3).
T2 sequence (Q8I2J3 whole entry): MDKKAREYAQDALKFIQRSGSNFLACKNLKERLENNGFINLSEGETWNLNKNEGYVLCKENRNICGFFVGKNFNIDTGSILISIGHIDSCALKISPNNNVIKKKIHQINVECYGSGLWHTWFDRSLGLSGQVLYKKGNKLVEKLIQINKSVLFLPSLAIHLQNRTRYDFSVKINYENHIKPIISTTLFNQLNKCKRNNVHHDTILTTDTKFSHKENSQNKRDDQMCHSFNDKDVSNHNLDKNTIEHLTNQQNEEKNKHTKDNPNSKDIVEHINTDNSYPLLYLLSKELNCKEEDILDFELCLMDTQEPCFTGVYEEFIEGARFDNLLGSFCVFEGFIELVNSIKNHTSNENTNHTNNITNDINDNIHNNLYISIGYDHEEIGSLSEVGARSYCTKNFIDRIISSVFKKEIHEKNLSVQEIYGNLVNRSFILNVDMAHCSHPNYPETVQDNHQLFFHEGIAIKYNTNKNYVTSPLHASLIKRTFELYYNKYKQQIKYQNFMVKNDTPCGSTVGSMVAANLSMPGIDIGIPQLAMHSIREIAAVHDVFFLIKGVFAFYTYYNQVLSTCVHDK
In words: Counterscreen for inhibitors of M1 and M17 aminopeptidases: QFRET-based biochemical high throughput dose response assay for inhibitors of the Plasmodium falciparum M18 Aspartyl Aminopeptidase (PFM18AAP). [Related PubChem assays: 1619 (Screening assay (M17LAP inhibitors).), 1445 (Screening assay (M1AAP inhibitors).)]. (In general: Counterscreens check selectivity or assay interference.)

The target of assay [6] is Procathepsin L (Homo sapiens, UniProt P07711). In words: CTSL1 protease inhibition – biochemical, QFRET, 1536-well, counter-screen for M1/M17 aminopeptidase inhibitor project, dose response (AID 2214).
Assay [7] deals with Luciferin 4-monooxygenase (Photinus pyralis, UniProt P08659). Kind of assay: Counter Screen for Luciferase-based Assay Positives. [Related pubchem assays: 620, 618, 411 ].
Assay [8] has as its system HT-1080. Kind of assay: HT1080 cell viability loss – fluorescence readout (AID 620). The format is functional, cell-based. To be noted: Homo sapiens.
Assay [9] has as its system HEK293. Kind of assay: EBV LMP1 TES2 canonical NF-kB signalling blockers – cell-based, HEK293, luciferase, cherry-pick, dose response (AID 588343). Format: functional. To be noted: Homo sapiens.
Assay [10] can be described thus: Trypanosoma cruzi growth suppression in host cells – NIH3T3 host cells, beta-gal luminescence, confirmation (AID 2044).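 Further: intracellular parasites grown in NIH/3T3 mouse fibroblasts as host cells; luminescent beta-galactosidase reporter signal from transgenic T. cruzi replicating inside host cells; inhibitors lower the luminescence signal.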 Format: functional, cell-based.
Assay [11] in a line: NIH3T3 cell viability loss – ATP luminescence, mouse fibroblasts, counter-screen, dose response (AID 2010).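 Further: cells exposed to compound for about 90 hours before reading.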 The format is functional, cell-based.
For assay [12], the target named is T3, Acyl-homoserine lactone acylase PvdQ (Pseudomonas aeruginosa (strain LESB58), UniProt Q9I194).
T3 sequence (Q9I194 whole entry): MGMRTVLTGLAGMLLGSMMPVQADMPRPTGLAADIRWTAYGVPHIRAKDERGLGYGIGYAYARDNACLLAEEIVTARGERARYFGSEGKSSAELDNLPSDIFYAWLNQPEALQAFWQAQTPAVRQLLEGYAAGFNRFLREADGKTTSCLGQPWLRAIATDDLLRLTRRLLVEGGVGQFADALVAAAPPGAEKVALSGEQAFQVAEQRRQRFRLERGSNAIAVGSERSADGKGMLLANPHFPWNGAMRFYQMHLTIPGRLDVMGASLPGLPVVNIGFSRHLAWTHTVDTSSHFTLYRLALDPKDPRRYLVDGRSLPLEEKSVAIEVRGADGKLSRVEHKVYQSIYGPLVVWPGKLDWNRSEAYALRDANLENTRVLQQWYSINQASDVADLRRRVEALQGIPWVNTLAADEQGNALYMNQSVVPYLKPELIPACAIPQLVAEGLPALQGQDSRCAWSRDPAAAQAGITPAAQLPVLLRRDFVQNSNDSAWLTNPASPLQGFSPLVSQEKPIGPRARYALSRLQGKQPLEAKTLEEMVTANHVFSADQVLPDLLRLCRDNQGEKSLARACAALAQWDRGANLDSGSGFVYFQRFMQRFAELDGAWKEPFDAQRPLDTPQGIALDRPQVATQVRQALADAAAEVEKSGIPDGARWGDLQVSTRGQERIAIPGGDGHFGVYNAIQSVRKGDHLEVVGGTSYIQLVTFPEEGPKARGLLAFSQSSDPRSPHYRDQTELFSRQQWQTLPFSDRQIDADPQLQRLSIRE
In words: PvdQ acylase enzyme activity blockers – biochemical, fluorescence, plate reader and imaging, cherry-picks, dose response (AID 493231).

In assay [13] the target is T4, Ubiquitin-conjugating enzyme E2 N (Homo sapiens, UniProt P61088).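 Further: Dose-response confirmation in a TR-FRET assay detecting UBC13-driven polyubiquitin chain formation, inhibition measured.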
T4 sequence (P61088 whole entry): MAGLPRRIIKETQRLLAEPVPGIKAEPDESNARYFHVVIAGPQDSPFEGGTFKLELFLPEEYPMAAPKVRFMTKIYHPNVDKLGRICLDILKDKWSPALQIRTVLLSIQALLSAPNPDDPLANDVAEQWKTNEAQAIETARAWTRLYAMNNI
The format is functional.

The nature of assay [14]: luciferase reporter signal suppression in cells – H4 neuroglioma cells, luminescence, dose response (AID 1990). The format is functional, cell-based. In general terms: Reporter assays use an easily measured gene product as a stand-in for the process of interest.
Assay [15] is described as follows: luciferase reporter signal reduction – luminescence, H4-C neuroglioblastoma cells, dose response (AID 2458).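 Further: H4 neuroglioblastoma cells stably carrying a luciferase reporter gene fusion.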 The format is functional, cell-based.
The test system of assay [16] is BJ. Kind of assay: BJ-TERT fibroblast viability loss – cell-based, RAS-independent, luminescence, dose response (AID 1933). Format: functional. To be noted: Homo sapiens.
A short description of assay [17]: cells. Format: functional, cell-based.
Assay [18] in a line: alpha-synuclein stem-loop luciferase translation blockers – H4 neuroglioma cells, luminescence, confirmation (AID 1988). The format is functional, cell-based.
In assay [19] the test system is BJ. Kind of assay: cells. Format: functional, cell-based. To be noted: Homo sapiens.
Assay [20] in a line: DRD fibroblast viability loss – cell-based, non-viral oncogenic, luminescence, dose response (AID 1934). The format is functional. To be noted: Homo sapiens.
A short description of assay [21]: alpha-synuclein stem-loop translation blockers – luminescence, H4 neuroglioblastoma cells, dose confirmation, confirmation (AID 2454).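 Further: H4 neuroglioblastoma cells carrying an alpha-synuclein 5'UTR luciferase reporter; potency for inhibition of the luciferase signal.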 Format: functional, cell-based.
Assay [22] is described as follows: HEK-293T viability loss after treatment – luminescence, T-cell screen hits, cytotoxicity control for TCR NF-kB inhibitor project, dose response (AID 489026).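 Further: cells exposed to compound about 14 hours before the viability readout.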 The format is functional, cell-based.
In assay [23] the target is T5, CAAX prenyl protease 2 (Homo sapiens, UniProt Q9Y256).
T5 sequence (Q9Y256 whole entry): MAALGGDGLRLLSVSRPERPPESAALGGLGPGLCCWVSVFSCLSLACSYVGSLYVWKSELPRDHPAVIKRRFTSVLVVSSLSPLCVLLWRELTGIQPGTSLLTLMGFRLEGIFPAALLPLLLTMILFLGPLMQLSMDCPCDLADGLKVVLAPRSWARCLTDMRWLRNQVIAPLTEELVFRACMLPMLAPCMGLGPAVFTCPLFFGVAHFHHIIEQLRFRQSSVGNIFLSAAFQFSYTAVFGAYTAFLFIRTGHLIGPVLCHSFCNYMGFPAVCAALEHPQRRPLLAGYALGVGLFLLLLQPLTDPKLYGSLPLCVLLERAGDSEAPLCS
Kind of assay: inhibition of Ras-converting CAAX protease Rce1 – biochemical, yeast membranes, quenched-peptide fluorescence, cherry-pick, dose response (AID 588849).

Assay [24] concerns the target Eukaryotic translation initiation factor 4E (Mus musculus, UniProt P63073). Kind of assay: blockers of eIF4G binding by eIF4E – biochemical, TR-FRET, dose response (AID 855).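 Further: potency for disrupting eIF4E binding to eIF4GI seen as loss of FRET.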 The format is functional.

The structures appear in SMILES notation. Active and inactive are the calls of the source. Where only a bound is given, the exact number is not on record here.

Chain of Procathepsin L (P07711 whole entry): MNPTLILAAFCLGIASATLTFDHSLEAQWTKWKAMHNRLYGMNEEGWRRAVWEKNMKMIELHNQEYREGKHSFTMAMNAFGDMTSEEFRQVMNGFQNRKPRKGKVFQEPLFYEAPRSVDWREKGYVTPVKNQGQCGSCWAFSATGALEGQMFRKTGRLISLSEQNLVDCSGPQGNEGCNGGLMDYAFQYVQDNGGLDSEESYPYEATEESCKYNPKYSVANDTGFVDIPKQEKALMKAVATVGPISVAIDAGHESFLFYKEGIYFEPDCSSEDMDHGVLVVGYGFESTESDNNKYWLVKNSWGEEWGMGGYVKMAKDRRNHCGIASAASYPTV
Chain of Luciferin 4-monooxygenase (P08659 whole entry): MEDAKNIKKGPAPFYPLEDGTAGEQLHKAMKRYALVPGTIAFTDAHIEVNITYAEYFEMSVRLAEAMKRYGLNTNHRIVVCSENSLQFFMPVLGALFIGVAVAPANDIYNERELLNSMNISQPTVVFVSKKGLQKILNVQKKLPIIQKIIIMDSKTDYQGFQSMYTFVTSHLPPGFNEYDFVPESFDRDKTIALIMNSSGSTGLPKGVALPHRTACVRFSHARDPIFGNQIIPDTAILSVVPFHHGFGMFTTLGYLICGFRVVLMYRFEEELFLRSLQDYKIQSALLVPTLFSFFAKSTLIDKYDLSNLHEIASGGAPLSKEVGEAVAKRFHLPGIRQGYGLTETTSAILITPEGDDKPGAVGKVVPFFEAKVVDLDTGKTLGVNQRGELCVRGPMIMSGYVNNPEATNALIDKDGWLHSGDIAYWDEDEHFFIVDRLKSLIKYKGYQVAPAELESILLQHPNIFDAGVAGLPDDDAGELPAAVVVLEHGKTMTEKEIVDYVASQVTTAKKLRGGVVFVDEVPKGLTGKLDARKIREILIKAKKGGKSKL
Chain of Polyadenylate-binding protein 1 (P11940 whole entry): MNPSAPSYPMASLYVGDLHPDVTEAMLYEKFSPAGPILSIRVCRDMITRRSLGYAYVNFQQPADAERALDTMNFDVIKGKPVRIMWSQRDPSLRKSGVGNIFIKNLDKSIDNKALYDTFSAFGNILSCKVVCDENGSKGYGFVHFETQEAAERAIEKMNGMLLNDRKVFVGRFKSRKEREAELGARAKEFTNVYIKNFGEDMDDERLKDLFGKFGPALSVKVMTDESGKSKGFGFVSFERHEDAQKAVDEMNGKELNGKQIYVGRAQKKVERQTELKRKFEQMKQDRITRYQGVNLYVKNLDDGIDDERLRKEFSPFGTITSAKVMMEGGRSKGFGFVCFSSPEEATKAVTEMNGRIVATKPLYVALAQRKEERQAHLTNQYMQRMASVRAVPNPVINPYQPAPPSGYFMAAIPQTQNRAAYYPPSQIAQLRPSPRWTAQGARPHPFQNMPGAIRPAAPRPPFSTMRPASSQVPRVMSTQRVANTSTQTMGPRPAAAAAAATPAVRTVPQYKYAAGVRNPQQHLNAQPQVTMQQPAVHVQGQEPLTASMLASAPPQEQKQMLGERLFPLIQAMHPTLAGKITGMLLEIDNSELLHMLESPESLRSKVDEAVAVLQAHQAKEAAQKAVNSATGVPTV
Chain of Eukaryotic translation initiation factor 4E (P63073 whole entry): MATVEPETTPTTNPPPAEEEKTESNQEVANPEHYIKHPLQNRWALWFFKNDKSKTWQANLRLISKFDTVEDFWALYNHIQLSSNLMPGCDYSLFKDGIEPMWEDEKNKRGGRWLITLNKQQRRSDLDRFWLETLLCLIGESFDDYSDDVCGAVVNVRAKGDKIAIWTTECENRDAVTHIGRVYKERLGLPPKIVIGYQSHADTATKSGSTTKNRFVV

In the case of `O=C(NC(Cc1ccccc1)C(=O)Oc1ccc2c(C(F)(F)F)cc(=O)oc2c1)OCc1ccccc1` (configuration not stated), the IC50 in [1] and in assay [2] was > 100 µM (inactive) in each case.

Turning to `CNc1nc(SC)n(C)c(=O)c1N=O`, the EC50 (commonly the concentration giving half of the maximal effect) in [3] is > 50 µM (active).

In the case of `COC(=O)c1c(-c2ccc(C)cc2)csc1NC(=O)C1CC=CCC1C(=O)O` (configuration not stated), the IC50 (in general, the concentration at which inhibition is half-maximal) in assay [4] is 1.2 µM (active); in [5] it was > 73.5 µM (not active); in assay [6], > 59.6 µM (not active).

Regarding `c1ccc(OCCSc2nnc3sc4ccccc4n23)cc1`, the EC50 in [7] was > 100 µM (not active); in [8] it was 14.8 µM (active). In assay [9], the AC50 (usually the concentration giving half of the maximal activity seen) is 1.29 µM (active).

As for `O=C(NCC1CC1)c1cc([N+](=O)[O-])cc([N+](=O)[O-])c1`, the 50% effective concentration (EC50) in [10] is 0.622 µM (active); in assay [11], > 60 µM (not active). Besides, in assay [12], the AC50 is 3.55 µM (active).

Consider `O=S(=O)(c1ccc(NC(=S)NN=C(C2CC2)C2CC2)cc1)N1CCOCC1`, for which, in assay [13], the IC50 was > 20 µM (inactive).

As for `COc1cccc(Cn2cnc3c([N+](=O)[O-])c(C)c(C)cc32)c1`, the IC50 in assay [13] is > 20 µM (inactive).

On to `Cc1cc(NC(=O)c2cc([N+](=O)[O-])ccc2Cl)no1`, for which the AC50 in assay [12] is 3.71 µM (active).

With `COc1ccccc1-c1nnc2sc(-c3ccc(N(C)C)cc3)nn12`, the EC50 is < 0.1 µM (active) in [14]; 0.143 µM (active) in assay [15]; 0.179 µM (active) in [16]; 0.29 µM (active) in assay [17]; < 0.1 µM (active) in [18]; 0.637 µM (active) in assay [19]. Besides, the EC50 in assay [20] was 0.202 µM (active); in assay [21], 0.179 µM (active). Besides, in assay [22], the IC50 was > 80 µM (inactive). Besides, in assay [23], the AC50 is 1.02 µM (active).

In the case of `CCOc1ccc(C(=O)Nc2cccc(C)n2)cc1`, in assay [12], the half-maximal activity concentration (AC50) was 19.3 µM (active).

In the case of `COc1ccc(NC(=O)CSc2nc(O)cc(=O)n2C)cc1`, the IC50 in [4] is 2.59 µM (active); in assay [5], > 73.5 µM (not active); in assay [6], > 59.6 µM (not active).

With `CCOc1ccc(C2CC(=O)NC(SCC(=O)OC)=C2C#N)cc1` (configuration not stated), the EC50 in assay [3] was > 50 µM (active).

As to `O=C(CSc1nnc(-c2ccccc2)n1-c1ccc(Cl)cc1)NC1CCS(=O)(=O)C1` (configuration not stated), in assay [3], the concentration giving a half-maximal response (EC50) is > 50 µM (active).

On to `O=C1OC(c2ccccc2)=C/C1=C\c1ccc(-c2ccc([N+](=O)[O-])cc2)o1`, for which the IC50 in assay [24] is 50 µM (inactive).

Values taken from ChEMBL document CHEMBL1201862, “PubChem BioAssay data set” (2004).
